Measurements from the NIST ThermoML archive (doi:10.1021/acs.jced.5b00820).
Numbers after ± are expanded uncertainties.

Assay: refractive index (Na D-line) (dimensionless); xn = mol fraction of the nth substance listed
Conditions: 102.2 kPa, Liquid, Standard Abbe refractometry

C[Si](C)(O[Si](C)(C)c1ccccc1)c1ccccc1 [1,3-diphenyltetramethyldisiloxane] + C=C[Si](C)(C)O[Si](C)(C)C=C
refractive index
Conditions	308.15 K	313.15 K	318.15 K	323.15 K	328.15 K
x1 = 0.0502	1.41155 ± 0.00036	1.40892 ± 0.00036	1.40628 ± 0.00036	1.40366 ± 0.00036	1.40099 ± 0.00036
x1 = 0.1	1.41834 ± 0.00036	1.41574 ± 0.00036	1.41315 ± 0.00036	1.41057 ± 0.00036	1.40797 ± 0.00036
x1 = 0.1487	1.42478 ± 0.00036	1.42224 ± 0.00036	1.41967 ± 0.00036	1.41713 ± 0.00036	1.41456 ± 0.00036
x1 = 0.2002	1.43134 ± 0.00035	1.42886 ± 0.00035	1.42631 ± 0.00035	1.42381 ± 0.00035	1.42128 ± 0.00035
x1 = 0.2498	1.43748 ± 0.00035	1.43501 ± 0.00035	1.43251 ± 0.00035	1.43004 ± 0.00035	1.4275 ± 0.00035
x1 = 0.3	1.44347 ± 0.00035	1.44103 ± 0.00035	1.43853 ± 0.00035	1.43607 ± 0.00035	1.43356 ± 0.00035
x1 = 0.3503	1.4493 ± 0.00035	1.44687 ± 0.00035	1.4444 ± 0.00035	1.44199 ± 0.00035	1.43951 ± 0.00035
x1 = 0.3994	1.45477 ± 0.00035	1.45239 ± 0.00035	1.44994 ± 0.00035	1.44752 ± 0.00035	1.44508 ± 0.00035
x1 = 0.4502	1.46032 ± 0.00035	1.45792 ± 0.00035	1.45549 ± 0.00035	1.45314 ± 0.00035	1.45071 ± 0.00035
x1 = 0.5001	1.46558 ± 0.00035	1.46321 ± 0.00035	1.46081 ± 0.00035	1.45844 ± 0.00035	1.45605 ± 0.00035
x1 = 0.5498	1.47066 ± 0.00035	1.46834 ± 0.00035	1.46594 ± 0.00035	1.4636 ± 0.00035	1.4612 ± 0.00035
x1 = 0.6002	1.47565 ± 0.00035	1.47332 ± 0.00035	1.47093 ± 0.00035	1.46859 ± 0.00035	1.46619 ± 0.00035
x1 = 0.6502	1.48048 ± 0.00035	1.47816 ± 0.00035	1.47577 ± 0.00035	1.47346 ± 0.00035	1.47107 ± 0.00035
x1 = 0.7004	1.48515 ± 0.00035	1.48285 ± 0.00035	1.48049 ± 0.00035	1.47821 ± 0.00035	1.47583 ± 0.00035
x1 = 0.7504	1.48971 ± 0.00035	1.48739 ± 0.00035	1.48506 ± 0.00035	1.48275 ± 0.00035	1.48038 ± 0.00035
x1 = 0.8003	1.4941 ± 0.0004	1.49177 ± 0.00035	1.48948 ± 0.00035	1.48715 ± 0.00035	1.48483 ± 0.00035
x1 = 0.8498	1.49836 ± 0.00035	1.49606 ± 0.00035	1.49375 ± 0.00035	1.49142 ± 0.00035	1.48912 ± 0.00035
x1 = 0.8986	1.50242 ± 0.00035	1.50013 ± 0.00035	1.49781 ± 0.00035	1.49552 ± 0.00035	1.4932 ± 0.00035
x1 = 0.9502	1.50659 ± 0.00035	1.50428 ± 0.00035	1.50198 ± 0.00035	1.49974 ± 0.00035	1.49743 ± 0.00035
x1 = 1	1.51052 ± 0.00035	1.5082 ± 0.0004	1.50593 ± 0.00035	1.50366 ± 0.00035	1.50133 ± 0.00035
